Assay results published in patent US7265107B2, “Rifamycin C-11 oxime cyclo derivatives effective against drug-resistant microbes” (Cumbre Pharmaceuticals Inc., priority 2004, dated 2007).
≈ marks a conversion by molar mass, not a printed value. Read-outs that look alike come from different tables or passages of the source.

Tests used:
Format in all cases: cell-based
[1] = test system: Enterococcus faecalis ATCC29212; conditions: rifS, BHI Broth, 37° C., read-out: Antimicrobial activity (MIC)
[2] = test system: Staphylococcus aureus EN1252a gvrA^S84L grlA^S80F; experiment: microbe, parasite or virus in culture; conditions: read-out: Antimicrobial activity (MIC)
Protocol: (§1) Representative compounds were assayed for antimicrobial activity as follows: Minimum Inhibitory Concentrations (“MICs”) were determined by the microbroth dilution method as per NCCLS guidelines (National Committee for Clinical Laboratory Standards. 2000. Methods for dilution antimicrobial susceptibility tests for bacteria that grow aerobically, 5th ed. M7-A5. National Committee for Clinical Laboratory Standards, Wayne, Pa.), except that all growth incubations were conducted at 37° C. Bacterial cultures were tested in the following bacteriological media: S. aureus, S. epidermidis, and E. coli in Cation-Adjusted Mueller-Hinton Broth, S. pneumoniae in THY Broth supplemented with 1 mg/mL catalase under 5% CO2 atmosphere, S. pyogenes in THY Broth, E. faecalis in BHI Broth, H. influenzae in BHI Broth supplemented with 0.75 μL of 1 mg/mL NAD and 150 μL of 1 mg/ml hematin per 5 mL, and M. smegmatis in Middlebrook Broth plus ADC Enrichment.
S. aureus EN1252a gyrA^S84L grlA^S80F is a quinolone-resistant strain due to double mutations to the genes confer DNA gyrase and topoisomerase IV.

[3] = test system: Streptococcus pneumoniae ATCC6303; conditions: rifS, THY Broth with 1 mg/mL catalase, 5% CO2, 37° C., read-out: Antimicrobial activity (MIC)
[4] = test system: Haemophilus influenzae ATCC10211; conditions: rifS, BHI Broth with NAD and hematin, 37° C., read-out: Antimicrobial activity (MIC)
[5] = MIC, microbroth dilution, panel of rifampin-susceptible Gram-positive strains; conditions: across the five rifampin-susceptible Gram-positive strains
Protocol: as §1
S. aureus ATCC […], S. epidermidis ATCC 12228, S. pneumoniae ATCC6303, S. pyogenes ATCC 19615 and E. faecalis ATCC 29212 are rifampin-susceptible Gram-positive strains. […] The compounds of the current invention show further improved activity against these strains with MICs as low as 0.0005 μg/ml.

[6] = test system: Streptococcus pyogenes ATCC19615; conditions: rifS, THY Broth, 37° C., read-out: Antimicrobial activity (MIC)
[7] = cipR, Cation-Adjusted Mueller-Hinton Broth, 37° C.

SMILES	MIC [1] [µg/mL]	MIC [2] [ng/mL]	MIC [3] [ng/mL]	MIC [4] [µg/mL]	MIC [5] [µg/mL]	MIC [6] [µg/mL]	MIC [2, 7] [ng/mL]
CO[C@H]1/C=C/O[C@@]2(C)Oc3c(C)c(O)c4c(O)c(c(/C=N/N5CCN(C)CC5)c(O)c4c3C2=O)NC(=O)/C(C)=C\C=C\[C@H](C)[C@H](O)[C@@H](C)[C@@H](O)[C@@H](C)[C@H](OC(C)=O)[C@@H]1C [rifampin, reference compound]	1 (≈ 1220 nM)	4 (≈ 4.86 nM)	61 (≈ 74.1 nM)	0.24 (≈ 292 nM)	0.013 to 1 (≈ 15.8 to 1220 nM)	0.013 (≈ 15.8 nM)	–
CO[C@H]1/C=C/O[C@@]2(C)Oc3c(C)c(O)c4c(=O)c(c5oc6cc(N(CCO)CCO)cc(O)c6nc-5c4c3/C2=N/O)NC(=O)/C(C)=C\C=C\[C@H](C)[C@H](O)[C@@H](C)[C@@H](O)[C@@H](C)[C@H](OC(C)=O)[C@@H]1C [Example 18, 11-Deoxy-11-hydroxyimino-1′,4-didehydro-1-deoxy-1,4-dihydro-3′-hydroxy-5′-[bis-(2-hydroxy-ethyl)-amino]-1-oxo-rifamycin VIII]	0.5 to 31.2 (≈ 544 to 34000 nM)	–	0.06 to 31 (≈ 0.0653 to 33.7 nM)	0.125 to 8 (≈ 136 to 8710 nM)	–	–	0.5 to 125 (≈ 0.544 to 136 nM)
CO[C@H]1/C=C/O[C@@]2(C)Oc3c(C)c(O)c4c(=O)c(c5oc6cc(N7CCN(C)CC7)cc(C)c6nc-5c4c3/C2=N/O)NC(=O)/C(C)=C\C=C\[C@H](C)[C@H](O)[C@@H](C)[C@@H](O)[C@@H](C)[C@H](OC(C)=O)[C@@H]1C [Example 19, 11-Deoxy-11-hydroxyimino-1′,4-didehydro-1-deoxy-1,4-dihydro-3′-methyl-5′-(4-methyl-1-piperazinyl)-1-oxo-rifamycin VIII]	0.5 to 31.2 (≈ 548 to 34300 nM)	–	0.06 to 31 (≈ 0.0658 to 34 nM)	0.125 to 8 (≈ 137 to 8770 nM)	–	–	0.5 to 125 (≈ 0.548 to 137 nM)
CO[C@H]1/C=C/O[C@@]2(C)Oc3c(C)c(O)c4c(=O)c(c5oc6cc(N7CCN(CC(C)C)CC7)cc(O)c6nc-5c4c3/C2=N/O)NC(=O)/C(C)=C\C=C\[C@H](C)[C@H](O)[C@@H](C)[C@@H](O)[C@@H](C)[C@H](OC(C)=O)[C@@H]1C [Example 5, 11-Deoxy-11-hydroxyimino-1′,4-didehydro-1-deoxy-1,4-dihydro-3′-hydroxy-5′-[4-(2-methylpropyl)-1-piperazinyl]-1-oxo-rifamycin VIII]	0.5 to 31.2 (≈ 523 to 32700 nM)	–	0.06 to 31 (≈ 0.0628 to 32.4 nM)	0.125 to 8 (≈ 131 to 8370 nM)	–	–	0.5 to 125 (≈ 0.523 to 131 nM)
CO[C@H]1/C=C/O[C@@]2(C)Oc3c(C)c(O)c4c(c3/C2=N/O)C2=NC3(CCN(CC(C)C)CC3)NC2=C(NC(=O)/C(C)=C\C=C\[C@H](C)[C@H](O)[C@@H](C)[C@@H](O)[C@@H](C)[C@H](OC(C)=O)[C@@H]1C)C4=O [Example 4, 11-Deoxy-11-hydroxyimino-1′,4-didehydro-1-deoxy-1,4-dihydro-5′-(2-methylpropyl)-1-oxo-rifamycin XIV]	0.5 to 31.2 (≈ 580 to 36300 nM)	–	0.06 to 31 (≈ 0.0696 to 36 nM)	0.125 to 8 (≈ 145 to 9280 nM)	–	–	0.5 to 125 (≈ 0.58 to 145 nM)
